Laboratory results taken from patent publication US20250312352A1, “GLP-1R MODULATING COMPOUNDS” (Gilead Sciences, Inc., priority 2021, published 2025).

What follows are compounds tested against T1, GLP-1R (Homo sapiens, UniProt P43220) (assay: GLP-1R activation cAMP assay (Assay 1 or Assay 2)). Details: cAMP increase in CHO cells stably expressing GLP-1R; compounds run on one of the two cAMP assays.
T1 construct: host or cells: CHO cells
Type: cell-based
Outline: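 CHO cells stably expressing human GLP-1R were incubated 1 h in HBSS/20 mM HEPES/0.1% BSA, then exposed to 10-point agonist dilutions for 30 min at 37 °C. cAMP increase was measured with an HTRF Gs dynamic kit; EC50 from sigmoidal fit of response versus log concentration.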

T1 sequence (P43220 24-463): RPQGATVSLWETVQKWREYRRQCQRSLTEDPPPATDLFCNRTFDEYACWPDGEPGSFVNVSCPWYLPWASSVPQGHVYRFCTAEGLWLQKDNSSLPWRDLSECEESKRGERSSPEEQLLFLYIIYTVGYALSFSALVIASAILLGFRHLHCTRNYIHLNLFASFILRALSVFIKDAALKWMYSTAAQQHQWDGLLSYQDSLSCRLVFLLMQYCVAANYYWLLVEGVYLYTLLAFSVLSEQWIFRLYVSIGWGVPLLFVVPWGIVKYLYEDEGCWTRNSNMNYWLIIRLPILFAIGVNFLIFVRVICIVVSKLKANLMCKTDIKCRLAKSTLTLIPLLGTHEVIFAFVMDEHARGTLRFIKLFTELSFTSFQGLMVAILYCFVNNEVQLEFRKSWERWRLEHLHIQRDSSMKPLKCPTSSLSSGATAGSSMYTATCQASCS

Row | Compound | EC50 [nM]
1 | Cc1cn(C)nc1COc1cccc(-c2cc(F)c(Cc3nc4ccc(C(=O)O)cc4n3C[C@@H]3CCO3)cc2F)n1 [Example 77, (S)-2-(4-(6-((1,4-dimethyl-1H-pyrazol-3-yl)methoxy)pyridin-2-yl)-2,5-difluorobenzyl)-1-(oxetan-2-ylmethyl)-1H-benzo[d]imidazole-6-carboxylic acid] | 6.32
2 | NC(=O)c1ncc(COc2cccc(-c3cc(F)c(Cc4nc5ccc(C(=O)O)cc5n4C[C@@H]4CCO4)cc3F)n2)s1 [Example 165, (S)-2-(4-(6-((2-carbamoylthiazol-5-yl)methoxy)pyridin-2-yl)-2,5-difluorobenzyl)-1-(oxetan-2-ylmethyl)-1H-benzo[d]imidazole-6-carboxylic acid] | 2
3 | Cn1nc(COc2cccc(-c3cc(F)c(Cc4nc5ccc(C(=O)O)cc5n4C[C@@H]4CCO4)cc3F)n2)cc1-c1cnn(C(F)F)c1 [Example 110, (S)-2-(4-(6-((1′-(difluoromethyl)-2-methyl-1′H,2H-[3,4′-bipyrazol]-5-yl)methoxy)pyridin-2-yl)-2,5-difluorobenzyl)-1-(oxetan-2-ylmethyl)-1H-benzo[d]imidazole-6-carboxylic acid] | 0.95
4 | (S)-1-(oxetan-2-ylmethyl)-2-(2,3,6-trifluoro-4-(6-((4-(trifluoromethyl)thiazol-2-yl)methoxy)pyridin-2-yl)benzyl)-1H-benzo[d]imidazole-6-carboxylic acid [Example 376] | 0.153
5 | Cn1nc(COc2cccc(-c3cc(F)c(Cc4nc5ccc(C(=O)O)cc5n4C[C@@H]4CCO4)cc3F)n2)cc1C#N [Example 207, (S)-2-(4-(6-((5-cyano-1-methyl-1H-pyrazol-3-yl)methoxy)pyridin-2-yl)-2,5-difluorobenzyl)-1-(oxetan-2-ylmethyl)-1H-benzo[d]imidazole-6-carboxylic acid] | 0.46
6 | N#Cc1ccc(C#Cc2cnc(COc3cccc(-c4cc(F)c(Cc5nc6ccc(C(=O)O)cc6n5C[C@@H]5CCO5)cc4F)n3)s2)cc1 [Example 325, (S)-2-(4-(6-((5-((4-cyanophenyl)ethynyl)thiazol-2-yl)methoxy)pyridin-2-yl)-2,5-difluorobenzyl)-1-(oxetan-2-ylmethyl)-1H-benzo[d]imidazole-6-carboxylic acid] | 0.582

The remaining lines, values ahead:

Row | EC50 [nM] | Compound
7 | 0.079 | CNC(=O)c1csc(COc2cccc(-c3cc(F)c(Cc4nc5ccc(C(=O)O)cc5n4C[C@@H]4CCO4)cc3F)n2)n1 [Example 373, (S)-2-(2,5-difluoro-4-(6-((4-(methylcarbamoyl)thiazol-2-yl)methoxy)pyridin-2-yl)benzyl)-1-(oxetan-2-ylmethyl)-1H-benzo[d]imidazole-6-carboxylic acid]
8 | 0.118 | O=C(O)c1ccc2nc(Cc3c(F)cc(-c4cccc(OCc5ncc(C(F)(F)F)s5)n4)c(F)c3F)n(C[C@@H]3CCO3)c2c1 [Example 448, (S)-1-(oxetan-2-ylmethyl)-2-(2,3,6-trifluoro-4-(6-((5-(trifluoromethyl)thiazol-2-yl)methoxy)pyridin-2-yl)benzyl)-1H-benzo[d]imidazole-6-carboxylic acid]
9 | 0.28 | O=C(O)c1ccc2nc(Cc3cc(F)c(-c4cccc(OCc5ccc(C#Cc6cccnc6)cc5F)n4)cc3F)n(C[C@@H]3CCO3)c2c1 [Example 139, (S)-2-(2,5-difluoro-4-(6-((2-fluoro-4-(pyridin-3-ylethynyl)benzyl)oxy)pyridin-2-yl)benzyl)-1-(oxetan-2-ylmethyl)-1H-benzo[d]imidazole-6-carboxylic acid]
10 | 0.261 | O=C(O)c1ccc2nc(Cc3cc(F)c(-c4cccc(OCc5ncc(C#CC6CC(F)(F)C6)s5)n4)cc3F)n(C[C@@H]3CCO3)c2c1 [Example 336, (S)-2-(4-(6-((5-((3,3-difluorocyclobutyl)ethynyl)thiazol-2-yl)methoxy)pyridin-2-yl)-2,5-difluorobenzyl)-1-(oxetan-2-ylmethyl)-1H-benzo[d]imidazole-6-carboxylic acid]
11 | 0.27 | O=C(O)c1ccc2nc(Cc3cc(F)c(-c4cccc(OCc5ccc(-c6cn([C@H]7CCOC7)nn6)cc5F)n4)cc3F)n(C[C@@H]3CCO3)c2c1 [Example 217, 2-(2,5-difluoro-4-(6-((2-fluoro-4-(1-((S)-tetrahydrofuran-3-yl)-1H-1,2,3-triazol-4-yl)benzyl)oxy)pyridin-2-yl)benzyl)-1-(((S)-oxetan-2-yl)methyl)-1H-benzo[d]imidazole-6-carboxylic acid]
12 | 0.078 | O=C(O)c1cc(F)c2nc(Cc3cc(F)c(-c4cccc(OCc5ncc(C#CC6(CF)CC6)cc5Cl)n4)cc3F)n(C[C@@H]3CCO3)c2c1 [Example 380, (S)-2-(4-(6-((3-chloro-5-((1-(fluoromethyl)cyclopropyl)ethynyl)pyridin-2-yl)methoxy)pyridin-2-yl)-2,5-difluorobenzyl)-4-fluoro-1-(oxetan-2-ylmethyl)-1H-benzo[d]imidazole-6-carboxylic acid]
